Measurements: patent publication US7342027B2 (Yuhan Corporation, priority 2002, dated 2008)
Structures can show the parent of a compound that is named as a salt.

Molecular target: T1, Recombinant human cathepsin K (Homo sapiens, UniProt P43235)
T1 construct: made in house
T1 sequence (P43235 115-329): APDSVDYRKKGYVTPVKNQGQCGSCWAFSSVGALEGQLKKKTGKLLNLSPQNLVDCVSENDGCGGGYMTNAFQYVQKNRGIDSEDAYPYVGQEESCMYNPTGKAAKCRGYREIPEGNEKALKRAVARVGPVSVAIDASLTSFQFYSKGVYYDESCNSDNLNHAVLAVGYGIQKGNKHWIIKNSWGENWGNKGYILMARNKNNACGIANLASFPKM
Experiment: Inhibition of cathepsin K activity (Z-Phe-Arg-AMC fluorescence assay)
Format: biochemical
Settings: 25 uM Z-Phe-Arg-AMC, pH 5.5, 1 hour at 37° C.
Description: Test 1: Inhibition of Cathepsin K Activity
Recombinant human cathepsin K was prepared in accordance with Biol, Pharm. Bull, 19(8), 1026-1031 (1996) and J. Biol. Chem. 271, 2126-2132 (1996). Stock solutions of 2.5 mM Z-Phe-Arg-AMC (BACHEM, 1-1160) and all inhibitors were prepared in dimethyl sulfoxide. In vitro assays for cathepsin K were conducted with 25 uM Z-Phe-Arg-AMC as a substrate at pH 5.5 in 100 mM Na acetate buffer containing 20 mM cysteine and 5 mM EDTA in the presence of 2% final concentration of DMSO. Reaction was initiated by the addition of enzyme to samples, which were then incubated for 1 hour at 37° C. The fluorescence was monitored at 460 nm (excitation wavelength 360 nm) using fluorescence plate reader.
The concentrations of the test compounds, which inhibit 50% of cathepsin K activity, are represented as IC50 in Table 1.

| SMILES | IC50 [nM] |
| --- | --- |
| O=Cc1c(Cl)cccc1N1CCC(NC(=O)C2(NC(=O)c3cc4ccccc4o3)CCCCC2)C(=O)C1 (stereo not drawn) [Example 19, 4-[N-[1-[N-(benzofuran-2-ylcarbonyl)amino]cyclohexanecarbonyl]amino]-1-(3-chloro-2-formylphenyl)piperidin-3-one] | 4.41 |
| CS(=O)(=O)c1ccccc1N1CCC(NC(=O)C2(NC(=O)c3ccc(OCCN4CCOCC4)cc3)CCCCC2)C(=O)C1 (stereo not drawn) [Example 155, 4-[N-[1-[N-(4-(2-morpholinethoxy)benzoyl)amino]cyclohexanecarbonyl]amino]-1-(2-methanesulfonylphenyl)piperidin-3-one] | 1.29 |
| N#Cc1ccc(N2CCC(NC(=O)C3(NC(=O)c4cc5ccccc5o4)CCCCC3)C(=O)C2)cc1 (stereo not drawn) [Example 7, 4-[N-[1-[N-(benzofuran-2-ylcarbonyl)amino]cyclohexanecarbonyl]amino]-1-(4-cyanophenyl)piperidin-3-one] | 6.24 |
| CS(=O)(=O)c1ccccc1N1CCC(NC(=O)C2(NC(=O)c3ccc4ccccc4n3)CCCCC2)C(=O)C1 (stereo not drawn) [Example 136, 4-[N-[1-[N-(quinolin-2-ylcarbonyl)amino]cyclohexanecarbonyl]amino]-1-(2-methanesulfonylphenyl)piperidin-3-one] | 1.62 |
| O=C(NC1(C(=O)NC2CCN(c3ccccc3NC(=O)C3CC3)CC2=O)CCCCC1)c1cc2ccccc2o1 (stereo not drawn) [Example 53, 4-[N-[1-[N-(benzofuran-2-ylcarbonyl)amino]cyclohexanecarbonyl]amino]-1-[2-[N-(cyclopropanecarbonyl)amino]phenyl]piperidin-3-one] | 1.22 |
| CCN(CC)c1ccc(C(=O)NC2(C(=O)NC3CCN(c4ccc(F)cc4S(C)(=O)=O)CC3=O)CCCCC2)cc1 (stereo not drawn) [Example 174, 4-[N-[1-[N-(4-(diethylamino)benzoyl)amino]cyclohexanecarbonyl]amino]-1-(4-fluoro-2-methanesulfonylphenyl)piperidin-3-one hydrochloride] | 1 |
| Cc1ccsc1C(=O)NC1(C(=O)NC2CCN(c3ccccc3S(C)(=O)=O)CC2=O)CCCCC1 (stereo not drawn) [Example 121, 4-[N-[1-[N-(3-methyl-thiophen-2-ylcarbonyl)amino]cyclohexanecarbonyl]amino]-1-(2-methanesulfonylphenyl)piperidin-3-one] | 7.73 |
| CC1(C)CN(c2cc(F)ccc2N2CCC(NC(=O)C3(NC(=O)c4ccco4)CCCCC3)C(=O)C2)C1=O (stereo not drawn) [Example 92, 4-[N-[1-[N-(furan-2-ylcarbonyl)amino]cyclohexanecarbonyl]amino]-1-[4-fluoro-2-(3,3-dimethylazetidin-2-one-1-yl)phenyl]piperidin-3-one] | 1.45 |

Further lines, results first:

| IC50 [nM] | SMILES |
| --- | --- |
| 1.59 | CC[S+]([O-])c1ccccc1N1CCC(NC(=O)C2(NC(=O)c3cc4ccccc4o3)CCCCC2)C(=O)C1 (stereo not drawn) [Example 69] |
| 5.05 | CS(=O)(=O)c1ccc(N2CCC(NC(=O)C3(NC(=O)c4cc5ccccc5o4)CCCCC3)C(=O)C2)cc1 (stereo not drawn) [Example 5, 4-[N-[1-[N-(benzofuran-2-ylcarbonyl)amino]cyclohexanecarbonyl]amino]-1-(4-methanesulfonylphenyl)piperidin-3-one] |
| 1.63 | CS(=O)(=O)c1ccccc1N1CCC(NC(=O)C2(NC(=O)c3cc4cc(OCCN5CCCC5)ccc4o3)CCCCC2)C(=O)C1 (stereo not drawn) [Example 165, 4-[N-[1-[N-(5-(2-pyrrolidinethoxy)benzofuran-2-ylcarbonyl)amino]cyclohexanecarbonyl]amino]-1-(2-methanesulfonylphenyl)piperidin-3-one hydrochloride] |
| 1.9 | CS(=O)(=O)c1ccccc1N1CCC(NC(=O)C2(NC(=O)c3ccc(OCCN4CCCC4)cc3)CCCCC2)C(=O)C1 (stereo not drawn) [Example 156, 4-[N-[1-[N-(4-(2-pyrrolidinethoxy)benzoyl)amino]cyclohexanecarbonyl]amino]-1-(2-methanesulfonylphenyl)piperidin-3-one] |
| 8.07 | CCS(=O)(=O)c1ccccc1N1CCC(NC(=O)C2(NC(=O)c3cc(C)on3)CCCCC2)C(=O)C1 (stereo not drawn) [Example 107, 4-[N-[1-[N-(5-methyl-isoxazol-3-ylcarbonyl)amino]cyclohexanecarbonyl]amino]-1-(2-ethanesulfonylphenyl)piperidin-3-one] |
| 0.36 | CS(=O)(=O)c1ccccc1N1CCC(NC(=O)C2(NC(=O)c3ccc(-c4ccccc4)cc3)CCCCC2)C(=O)C1 (stereo not drawn) [Example 153, 4-[N-[1-[N-(4-biphenylcarbonyl)amino]cyclohexanecarbonyl]amino]-1-(2-methanesulfonylphenyl)piperidin-3-one] |
| 19.9 | Cc1cc(C(=O)NC2(C(=O)NC3CCN(c4ccccc4S(C)(=O)=O)CC3=O)CCCCC2)no1 (stereo not drawn) [Example 106, 4-[N-[1-[N-(5-methyl-isoxazol-3-ylcarbonyl)amino]cyclohexanecarbonyl]amino]-1-(2-methanesulfonylphenyl)piperidin-3-one] |
